Legend:
FLT3(R834Q) = target: T1, FLT3(R834Q) (Homo sapiens, UniProt P36888, R834Q); experiment: biochemical; details: read-out: Percent control
T1 sequence (P36888 27-993 R834Q): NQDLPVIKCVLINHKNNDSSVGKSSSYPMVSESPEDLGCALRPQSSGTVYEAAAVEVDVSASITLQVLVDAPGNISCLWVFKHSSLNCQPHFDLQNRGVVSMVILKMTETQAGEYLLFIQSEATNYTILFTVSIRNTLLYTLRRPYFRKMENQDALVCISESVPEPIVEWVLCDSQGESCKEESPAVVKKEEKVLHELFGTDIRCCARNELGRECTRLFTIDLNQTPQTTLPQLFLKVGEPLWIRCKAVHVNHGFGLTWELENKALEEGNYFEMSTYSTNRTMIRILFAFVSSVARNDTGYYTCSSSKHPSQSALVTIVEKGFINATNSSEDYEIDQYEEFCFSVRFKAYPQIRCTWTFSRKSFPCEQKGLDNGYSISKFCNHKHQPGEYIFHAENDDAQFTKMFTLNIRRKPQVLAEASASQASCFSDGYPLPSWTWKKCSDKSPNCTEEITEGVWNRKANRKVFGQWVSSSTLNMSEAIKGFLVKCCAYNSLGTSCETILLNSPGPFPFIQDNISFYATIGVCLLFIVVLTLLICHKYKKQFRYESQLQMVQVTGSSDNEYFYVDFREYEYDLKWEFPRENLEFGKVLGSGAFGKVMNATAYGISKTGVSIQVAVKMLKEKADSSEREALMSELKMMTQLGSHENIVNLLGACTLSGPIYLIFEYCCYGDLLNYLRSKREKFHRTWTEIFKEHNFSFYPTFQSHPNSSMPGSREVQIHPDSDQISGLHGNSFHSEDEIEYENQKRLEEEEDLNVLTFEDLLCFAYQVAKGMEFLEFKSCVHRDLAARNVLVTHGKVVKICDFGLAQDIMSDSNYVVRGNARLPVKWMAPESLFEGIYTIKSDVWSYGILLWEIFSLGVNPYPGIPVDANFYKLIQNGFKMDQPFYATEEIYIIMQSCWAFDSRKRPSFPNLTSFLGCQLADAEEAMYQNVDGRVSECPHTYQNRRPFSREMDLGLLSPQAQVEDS

FLT3(K663D) = target: T2, FLT3(K663D) (Homo sapiens, UniProt P36888, K663Q); experiment: biochemical; details: read-out: Percent control
T2 sequence (P36888 564-993 K663Q limits assumed): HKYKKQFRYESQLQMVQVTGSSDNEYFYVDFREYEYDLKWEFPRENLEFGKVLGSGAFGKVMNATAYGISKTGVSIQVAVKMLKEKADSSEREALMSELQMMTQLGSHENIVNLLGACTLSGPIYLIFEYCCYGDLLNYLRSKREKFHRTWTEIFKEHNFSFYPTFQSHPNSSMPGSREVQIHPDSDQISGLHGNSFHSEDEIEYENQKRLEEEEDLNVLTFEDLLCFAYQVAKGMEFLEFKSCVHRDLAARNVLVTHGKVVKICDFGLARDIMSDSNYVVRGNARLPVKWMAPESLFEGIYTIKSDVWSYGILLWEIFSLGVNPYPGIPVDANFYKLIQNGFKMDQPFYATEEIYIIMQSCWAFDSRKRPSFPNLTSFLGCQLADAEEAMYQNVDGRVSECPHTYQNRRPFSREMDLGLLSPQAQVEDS

[1] = target: T3, ABL1(E255K)-phosphorylated (Homo sapiens, UniProt P00519, E255K); experiment: biochemical; details: read-out: Percent control
ABL1-nonphosphorylated [2] = target: T4, ABL1-nonphosphorylated (Homo sapiens, UniProt P00519); experiment: biochemical; details: read-out: Percent control
[3] = target: ABL1(H396P)-nonphosphorylated (Homo sapiens, UniProt P00519, H396P); experiment: biochemical; details: read-out: Percent control
TIE1 = target: T5, TIE1 (Homo sapiens, UniProt P35590); format: binding; details: 10 μM
T5 construct: purchased DiscoveRx (KINOMEscan service)
T5 sequence (P35590 22-1138): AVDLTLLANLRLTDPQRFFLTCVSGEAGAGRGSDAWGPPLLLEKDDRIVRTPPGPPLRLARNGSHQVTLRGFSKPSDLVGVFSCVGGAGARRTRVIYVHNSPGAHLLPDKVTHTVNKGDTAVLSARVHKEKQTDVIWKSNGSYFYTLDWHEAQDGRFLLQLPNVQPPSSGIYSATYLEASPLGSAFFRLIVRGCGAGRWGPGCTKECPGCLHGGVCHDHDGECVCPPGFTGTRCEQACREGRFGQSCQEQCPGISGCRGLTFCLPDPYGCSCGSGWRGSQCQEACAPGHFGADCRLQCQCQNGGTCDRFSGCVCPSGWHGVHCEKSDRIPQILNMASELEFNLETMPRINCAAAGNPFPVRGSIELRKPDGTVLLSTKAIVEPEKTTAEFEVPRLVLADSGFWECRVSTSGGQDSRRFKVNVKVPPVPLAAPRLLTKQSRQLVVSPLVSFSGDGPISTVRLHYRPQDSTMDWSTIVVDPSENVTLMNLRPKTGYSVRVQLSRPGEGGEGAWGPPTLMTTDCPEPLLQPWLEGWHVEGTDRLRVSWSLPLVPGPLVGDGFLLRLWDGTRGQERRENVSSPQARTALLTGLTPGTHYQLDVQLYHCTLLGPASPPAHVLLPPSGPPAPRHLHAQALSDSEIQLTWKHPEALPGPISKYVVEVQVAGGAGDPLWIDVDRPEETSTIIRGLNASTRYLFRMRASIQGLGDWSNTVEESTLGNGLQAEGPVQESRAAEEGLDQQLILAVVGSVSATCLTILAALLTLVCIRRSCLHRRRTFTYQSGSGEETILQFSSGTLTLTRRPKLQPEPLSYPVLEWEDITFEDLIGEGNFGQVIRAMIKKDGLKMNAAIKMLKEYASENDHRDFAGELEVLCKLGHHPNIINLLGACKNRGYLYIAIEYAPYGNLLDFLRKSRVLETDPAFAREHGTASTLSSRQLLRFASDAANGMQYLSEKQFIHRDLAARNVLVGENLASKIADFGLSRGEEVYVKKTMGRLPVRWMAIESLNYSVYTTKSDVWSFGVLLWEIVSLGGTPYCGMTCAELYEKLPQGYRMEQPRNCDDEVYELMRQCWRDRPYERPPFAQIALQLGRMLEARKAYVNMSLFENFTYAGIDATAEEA

AXL = target: T6, AXL (Homo sapiens, UniProt P30530); experiment: biochemical; details: read-out: Percent control
T6 sequence (P30530 26-894): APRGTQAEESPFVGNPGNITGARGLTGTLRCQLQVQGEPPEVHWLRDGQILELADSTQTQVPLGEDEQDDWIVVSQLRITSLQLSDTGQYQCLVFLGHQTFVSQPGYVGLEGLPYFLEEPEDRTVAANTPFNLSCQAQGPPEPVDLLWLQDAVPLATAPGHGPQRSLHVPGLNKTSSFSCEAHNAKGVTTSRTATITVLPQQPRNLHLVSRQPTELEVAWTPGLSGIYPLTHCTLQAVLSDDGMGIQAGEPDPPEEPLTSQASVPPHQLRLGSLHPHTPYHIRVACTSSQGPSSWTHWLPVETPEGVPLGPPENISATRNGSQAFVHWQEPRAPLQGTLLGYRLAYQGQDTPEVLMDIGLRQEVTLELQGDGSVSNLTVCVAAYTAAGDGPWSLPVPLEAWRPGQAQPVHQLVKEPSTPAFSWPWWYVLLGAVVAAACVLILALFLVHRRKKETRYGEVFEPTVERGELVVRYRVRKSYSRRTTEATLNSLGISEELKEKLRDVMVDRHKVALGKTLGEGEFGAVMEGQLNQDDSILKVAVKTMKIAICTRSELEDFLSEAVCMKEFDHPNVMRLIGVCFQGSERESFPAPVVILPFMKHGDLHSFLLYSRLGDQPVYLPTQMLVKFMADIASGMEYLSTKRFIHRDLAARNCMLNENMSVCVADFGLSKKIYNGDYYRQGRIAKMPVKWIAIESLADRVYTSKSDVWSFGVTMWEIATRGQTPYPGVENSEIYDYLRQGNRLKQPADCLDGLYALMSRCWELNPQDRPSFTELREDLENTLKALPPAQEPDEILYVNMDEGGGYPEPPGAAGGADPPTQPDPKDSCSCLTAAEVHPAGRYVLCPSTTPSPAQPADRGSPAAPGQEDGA

ABL2 = ABL2 (Homo sapiens, UniProt P42684); experiment: biochemical; details: read-out: Percent control
Chain of ABL2 (P42684 whole entry): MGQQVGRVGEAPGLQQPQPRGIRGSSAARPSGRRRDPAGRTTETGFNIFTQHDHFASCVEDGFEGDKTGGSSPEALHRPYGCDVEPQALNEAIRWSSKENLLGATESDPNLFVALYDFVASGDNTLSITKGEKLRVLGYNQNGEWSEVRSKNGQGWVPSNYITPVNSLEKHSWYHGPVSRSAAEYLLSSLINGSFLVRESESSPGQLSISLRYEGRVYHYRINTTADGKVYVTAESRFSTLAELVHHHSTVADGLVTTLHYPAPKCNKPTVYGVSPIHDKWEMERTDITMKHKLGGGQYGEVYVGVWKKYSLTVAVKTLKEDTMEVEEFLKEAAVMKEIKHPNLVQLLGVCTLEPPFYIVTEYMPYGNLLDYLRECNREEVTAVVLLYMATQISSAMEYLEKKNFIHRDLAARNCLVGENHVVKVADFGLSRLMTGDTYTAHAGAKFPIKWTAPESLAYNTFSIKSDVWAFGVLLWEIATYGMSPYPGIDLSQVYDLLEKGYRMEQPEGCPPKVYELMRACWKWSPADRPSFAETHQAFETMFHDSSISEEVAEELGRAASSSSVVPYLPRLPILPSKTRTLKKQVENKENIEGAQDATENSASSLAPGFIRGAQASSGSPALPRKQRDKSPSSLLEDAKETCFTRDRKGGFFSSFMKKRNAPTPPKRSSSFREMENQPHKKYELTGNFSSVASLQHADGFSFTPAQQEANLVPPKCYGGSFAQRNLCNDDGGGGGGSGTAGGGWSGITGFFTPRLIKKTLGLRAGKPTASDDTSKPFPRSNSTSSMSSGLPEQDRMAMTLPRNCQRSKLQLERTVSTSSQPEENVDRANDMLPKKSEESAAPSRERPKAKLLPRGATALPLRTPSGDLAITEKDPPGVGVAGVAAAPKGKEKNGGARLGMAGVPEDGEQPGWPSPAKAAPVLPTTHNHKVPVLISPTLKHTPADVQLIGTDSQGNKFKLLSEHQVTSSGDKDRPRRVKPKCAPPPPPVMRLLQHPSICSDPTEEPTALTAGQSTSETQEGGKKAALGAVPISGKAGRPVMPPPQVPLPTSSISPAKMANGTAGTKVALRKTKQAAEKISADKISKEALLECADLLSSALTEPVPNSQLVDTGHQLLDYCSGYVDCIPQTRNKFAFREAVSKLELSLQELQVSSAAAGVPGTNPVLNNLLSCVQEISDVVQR

[4] = target: ABL1(E317I)-nonphosphorylated (Homo sapiens, UniProt P00519, F317I); details: 10 μM
ABL1-nonphosphorylated [5] = target: T4, ABL1-nonphosphorylated; details: 10 μM
[6] = target: T3, ABL1(E255K)-phosphorylated; details: 10 μM
[7] = target: ABL1(H396P)-phosphorylated (Homo sapiens, UniProt P00519, H396P); details: 10 μM

C#Cc1cccc(Nc2ncnc3cc(OCCOC)c(OCCOC)cc23)c1 [Erlotinib]
remaining activity at 10 µM (FLT3(R834Q)): 100% | remaining activity at 10 µM (FLT3(K663D)): 11.5% | remaining activity at 10 µM [1]: 0.6% | remaining activity at 10 µM (ABL1-nonphosphorylated [2]): 3.2% | remaining activity at 10 µM [3]: 0.9%

Cc1ccc(NC(=O)c2ccc(CN3CCN(C)CC3)cc2)cc1Nc1nccc(-c2cccnc2)[n+]1[Pt-2]1([Cl])[NH2+]C2CCCCC2[NH2+]1 (stereo not drawn) [1b, oxaliplatin-imatinib]
Percent control (TIE1): 100%

COc1cc2c(Nc3ccc(Br)cc3F)ncnc2cc1OCC1CCN(C)CC1 [Vandetanib, reference compound]
remaining activity at 10 µM (AXL): 2.4% | remaining activity at 10 µM (ABL2): 0.7%

C#Cc1cccc(Nc2c3cc(OCCOC)c(OCCOC)cc3nc[n+]2[Pt@SP2-2]([NH3+])([NH3+])[Cl])c1 [2a, cisplatin-erlotinib]
Percent control [4]: 83% | Percent control (ABL1-nonphosphorylated [5]): 25% | Percent control [6]: 9.9% | Percent control [7]: 13%

Reference: PMC4858680, “A platinum-based hybrid drug design approach to circumvent acquired resistance to molecular targeted tyrosine kinase inhibitors” (Scientific Reports, 2016)
